Test results reported in patent US20070082397A1, “Ex vivo progenitor and stem cell expansion for use in the treatment of disease of endodermally-derived organs” (priority 2003, published 2007).
Entries after “also recorded” stand apart in the source; their conditions may differ.

Columns and labels:
[1] = cited from earlier work
[2] = system: erythroid progenitor cells, cultured mouse erythroleukemia cells, embryonal stem cells, and hepatocytes in primary hepatocyte culture; details: cited from earlier work
[3] = system: stem and progenitor hematopoietic cells; details: cited from earlier work
[4] = system: hepatocytes from adult mouse livers; experiment: Primary adult mouse hepatocyte culture: expansion of hepatic stem (oval) cells; type: cell-based; details: for oval cells in hepatocyte culture: medium supplemented with 10 μM AGN 194310 or TEPA 10 μM, FIG. 1; for growth of cultured hepatocytes and appearance of hepatic stem (oval) cells: primary culture with EGF and HGF, TEPA 10 μM or AGN 194310 10 μM, compared with control cultures without additions
Description: Intact livers were harvested from 3 week old VLVC female mice (Harlan Laboratories, Jerusalem, Israel), dissected and washed twice with DMEM (Beit Haemek, Israel), incubated with DMEM in the presence 0.05% collagenase for 30 minutes at 37° C., ground and passed through a 200 μm mesh sieve, yielding individual hepatocytes. Cells were washed twice and viability was ascertained with trypan blue. Cells were plated in collagen-coated, 35 mm tissue culture plates at a density of 4-×10^4 live cells/ml in F12 media (containing 15 mM Hepes, 0.1% glucose, 10 mM sodium bicarbonate, 100 units/ml penicillin-streptomycin, glutamine, 0.5 units/ml insulin, 7.5 m cg/ml hydrocortisone, and 10% fetal bovine serum). Medium was changed after 12 hours, the cells were washed twice with phosphate buffered saline (PBS) and new medium was added. Medium was changed twice a week.
Hepatocytes were also grown in the presence of Epidermal Growth Factor (EGF), Platelet-Derived Growth Factor β chain (PDGF-BB), Fibroblast growth Factors (FGF-4) and Hepatocyte Growth Factor (HGF), at 20-50 ng/ml each, for the entire culturing period according to the method of Schwartz et al. (Schwartz R E, Reyes M, Koodie L, Jiang Y, Blackstad M, Lund T, Lenvik T, Johnson S, Hu W S, Verfaillie C M. Multipotent adult progenitor cells from bone marrow differentiate into functional hepatocyte-like cells. J Clin Invest. 2002; 109 (10): 1291-302). Hepatocytes were also grown in serum free medium according to the method of Runge et al. (Runge D, Runge D M, Jager D, Lubecki K A, Beer Stolz D, Karathanasis S, Kietzmann T, Strom S C, Jungermann K, Fleig W E, Michalopoulos G K. Serum-free, long-term cultures of human hepatocytes: maintenance of cell morphology, transcription factors, and liver-specific functions. Biochem Biophys Res Commun. 2000; 269(1): 46-53).
In all of the above-mentioned hepatocytes culture conditions, cells are grown in the presence or absence of the retinoic acid antagonist AGN 194310 or the transition metal chelator tetraethylenepentamine TEPA) at 10^−5 M.
After a period of 3 weeks, cultures treated with 10^−5 M AGN 194310 or TEPA were detached with 0.25% trypsin, split and replated at a 1:2 ratio. The cells were visualized with Giemsa staining.
Murine hepatocyte cultures supplemented with EGF and HGF were evaluated as primary cultures, or following first and second passages. First passage cultures were grown for 2 weeks, split 1:2 and cells stained 8 days later. Second passage cultures were similarly grown for 2 weeks, split 1:2, and grown for an additional week, then split 1:4 and similarly stained 4 days later.
Hepatocytes and ex-vivo expanded cells were fixed in methanol directly in their cell culture plates and each procedure performed by standard procedures as outlined below.
Ex-vivo expanded cells and hepatocytes were stained with Giemsa stain, according to manufacturer's instructions (Shandon, Pittsburg, Pa.) for 4 minutes at room temperature, washed in buffer solution for 4 minutes, washed 3-4 times with rinse solution and visualized by light microscopy. Nuclei were stained with hematoxylin (Dako, Carpinteria, Calif.).

[5] = system: cord-blood-derived, bone marrow-derived, and peripheral blood derived stem and progenitor cells; details: grown without a feeder layer; cited from earlier work

Compound | membrane permeability [1] | proliferation and differentiation [2] | long term ex vivo stem cell proliferation and differentiation [3] | oval cells in hepatocyte culture [4] | growth of cultured hepatocytes and appearance of hepatic stem (oval) cells [4] | persistence of treated hepatocyte cultures in culture ([4]; primary hepatocyte cultures) | fraction of CD34+ cells and their long-term clonability [5]
O=c1cc(N2CCOCC2)oc2c(-c3ccccc3)cccc12 [LY294002] | membrane permeable |  |  |  |  |  | 
NCCNCCNCCNCCN [TEPA, tetraethylenepentamine] |  | Facilitation of proliferation while inhibiting differentiation | effective promotion of long term ex vivo stem cell proliferation, while inhibiting differentiation | abundance of oval cells; also recorded: increase in the proportion of oval cells | clearly induced growth of the cultured hepatocytes, and the appearance of hepatic stem (oval) cells | at least 3 weeks | greatly enhanced the fraction of CD34^+ cell and their long-term clonability
CCc1ccc(C2=CC(C)(C)Sc3ccc(C#Cc4ccc(C(=O)O)cc4)cc32)cc1 [AGN 194310] |  |  |  | abundance of oval cells | clearly induced growth of the cultured hepatocytes, and the appearance of hepatic stem (oval) cells |  | 
